These results are taken from patent US20220133747A1, “ESTROGEN RECEPTOR INHIBITORS AND USES THEROF” (The Regents of the University of California, priority 2018, published 2022).

“Also recorded” adds a separate entry of the source.

One experiment relates to MCF-7/TMR cells. As to the kind of experiment: Cell proliferation assay, MCF-7 with tamoxifen resistance. As to conditions: 10 nM with 2 nM estradiol-17β, 48 hr. Type of experiment: cell-based, human.
The target of another experiment is T1, ERα (Homo sapiens, UniProt P03372).
T1 construct: endogenous in cells; host or cells: MCF-7 human breast cancer cells (ATCC)
T1 sequence (P03372 1-595): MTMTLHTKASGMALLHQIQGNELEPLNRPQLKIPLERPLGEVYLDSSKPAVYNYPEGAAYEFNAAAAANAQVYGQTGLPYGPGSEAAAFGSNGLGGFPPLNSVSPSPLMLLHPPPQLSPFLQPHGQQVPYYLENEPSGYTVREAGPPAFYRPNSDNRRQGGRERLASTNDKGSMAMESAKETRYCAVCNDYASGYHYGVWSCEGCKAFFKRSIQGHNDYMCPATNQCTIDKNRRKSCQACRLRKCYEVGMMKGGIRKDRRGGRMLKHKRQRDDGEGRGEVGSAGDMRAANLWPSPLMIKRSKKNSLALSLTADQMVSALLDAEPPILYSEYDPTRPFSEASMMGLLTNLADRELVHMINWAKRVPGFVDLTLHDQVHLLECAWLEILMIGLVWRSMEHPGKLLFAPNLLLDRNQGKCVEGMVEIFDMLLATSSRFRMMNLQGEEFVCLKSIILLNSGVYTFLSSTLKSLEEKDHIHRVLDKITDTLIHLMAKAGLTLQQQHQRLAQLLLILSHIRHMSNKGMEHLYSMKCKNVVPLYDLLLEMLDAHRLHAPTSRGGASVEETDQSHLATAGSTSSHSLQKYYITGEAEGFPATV
As to the kind of experiment: Downregulation of ER protein, PAGE and Western immunoblot in MCF-7 cells. Type of experiment: cell-based. As to conditions: 100 nM, 4 hours, phenol-red free medium without FBS. On the procedure:
FIGS. 20A-20C show biologic activity of selected SERD candidates. […] ER-positive MCF-7 cells were treated in phenol-red free RPMI 1640 without FBS and containing vehicle control (CON) or 100 nM concentrations of either fulvestrant (FX) or antiestrogens 105, 109, 121, 140, 151, 160 or SERD128 in vitro. After 4 hours, cells were harvested and processed for PAGE and Western immunoblots using ERα antibody (1D5, Thermofisher Scientific). RPL13A was used as a loading control. […] Cells were dosed with either E2 alone or with SERDs combined with E2 in phenol redfree medium with 0.1% dextran-coated charcoal-treated FBS in luminometer plates. Data are presented as relative light units (RLU) relative to that of E2 alone in three replicate assays (4 wells per replicate) f SEM. Treatment with E2 alone induced a 12-fold induction of ER-dependent luciferase activity quantified as RLU relative to vehicle control-treated samples.
MCF7 cells were plated in regular medium. After 24 hrs, cells were incubated in the presence of antiestrogens or fulvestrant for 4 hrs in phenol-red free medium without FBS. Cell lysates were prepared using RIPA buffer, and protein concentration was determined using the BCA Protein Assay Kit (PIERCE/ThermoFisher Scientific). Forty micrograms of total cell protein was resolved by 4-15% SDS-PAGE, transferred to a PVDF membrane and probed with antibody directed against ERα (1D5, 1:100, ThermoFisher cat #MA5-13191). RPL13A (dilution 1:1000, Invitrogen/ThermoFisher cat #PA5-58528) was used as loading control.
A general note: In western blotting, separated proteins are transferred to a membrane and probed.

Experiment [1] concerns 4T1 triple negative breast cancer cells. As to the kind of experiment: 4T1 cell proliferation in vitro, Incucyte live-cell confluence. Type of experiment: cell-based, mouse. As to conditions: 10, 100, 1000 nM, presence or absence of estradiol-17β, 5 days. On the procedure:
FIGS. 23A-23C show estrogen effects on ERα negative tumor growth in vitro and in vivo. […] Female 6-wk-old BALB/c mice, either ovariectomized (ovx) or sham-operated (intact), were inoculated s.c. with 2×10^5 4T1 TNBC cells. Tumor growth was then assessed every 3 days, with tumor volume calculated as V=(l×w×w)/2. ****P≤0.0001. […] 4T1 cells were grown in the presence (+E2) or absence (−E2) of estradiol-17β and increasing concentrations of SERD128 at 10 nM (128-10), 100 nM (128-100) or 1000 nM (128-1000). Cell proliferation was assessed using the Incucyte S3 Live-Cell Analysis system with pictures obtained every 4-6 hours. […] Tumors were measured every 3 days, and tumor volume was calculated as V=(W(2)×L)/2). **P<0,01, ****P<0.0001 as compared to control group. n=11-12.
MCF-7 and other selected BC cells were seeded in 96-well plates at […] in complete medium. […] Cell number and viability were determined by either cell counts or by colorimetric assays using the CELLTITER 96 AQUEOUS (Promega) assay or the cell proliferation ELISA BrdU assay (Roche) as per manufacturer's instructions. […] In selected experiments using the INCUCYTE™ Live Cell System (Essen Bioscience) as per the manufacturer's instructions, the proliferation of 4T1 cells maintained in a tissue culture incubator was monitored by using the NucLight Rapid Red Reagent for cell labeling in 6-well plates. […]

Take `C[C@]12C[C@H](Oc3ccc(N)c(C(F)(F)F)c3)[C@@H]3c4ccc(O)cc4CC[C@H]3[C@@H]1CC[C@@H]2O` [SERD128, (8S,9S,11S,13S,14S,17S)-11-(4-Amino-3-(trifluoromethyl)phenoxy)-13-methyl-7,8,9,11,12,13,14,15,16,17-decahydro-6H-cyclopenta[a]phenanthrene-3,17-diol]: the “cell proliferation (% of estradiol-treated controls)” value with MCF-7/TMR cells is given as “significantly blocked proliferation; also recorded: antiproliferative action”. The “downregulation of ER protein (ERα protein levels)” value at ERα is “comparable to that of the pure antiestrogen fulvestrant”; on ERα (listed as 128), “most effective in reducing ER protein levels; also recorded: comparable to that of fulvestrant”. Also, the “4T1 cell proliferation (phase object confluence)” value in experiment [1] was “No significant differences were observed in cell proliferation; also recorded: did not elicit any significant effect on cell growth in vitro”.
